Results published in the supplement of paper PMC10733146.

Tests used:
Experiment in all cases: viability relative to DMSO control (fraction); higher = less drug effect (more viable cells)
Settings in all cases: 48 h
[1] = test system: primary MCL patient cells (S041)
How it was run: (§1)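 In 384-well plates with compounds pre-plated at five concentrations (one well per concentration), primary mononuclear tumour cells were plated at 4 × 10^4 cells per well. The cells came from blood or bone marrow by Ficoll isolation or from processed lymph node, and were used fresh or cryopreserved. Culture ran for 48 h at 37 °C and 5% CO2 in RPMI-1640 containing penicillin/streptomycin, L-glutamine and human serum. Viability was read as CellTiter-Glo luminescence, normalised to the median of 16 inner DMSO wells.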

[2] = test system: primary FL patient cells (S022)
How it was run: as §1

[3] = test system: primary AML patient cells (S037)
How it was run: as §1

[4] = test system: primary AML patient cells (S006)
How it was run: as §1

[5] = test system: primary AML patient cells (S072)
How it was run: as §1

[6] = test system: primary FL patient cells (S087)
How it was run: as §1

[7] = test system: primary MCL patient cells (S063)
How it was run: as §1

[8] = test system: primary MCL patient cells (S068)
How it was run: as §1

[9] = test system: primary AML patient cells (S079)
How it was run: as §1

[10] = test system: primary AML patient cells (S012)
How it was run: as §1

[11] = test system: primary CLL patient cells (S031)
How it was run: as §1

[12] = test system: primary AML patient cells (S055)
How it was run: as §1

[13] = test system: primary T-PLL patient cells (S008)
How it was run: as §1

[14] = test system: primary ALL patient cells (S048)
How it was run: as §1

[15] = test system: primary DLBCL patient cells (S082)
How it was run: as §1

[16] = test system: primary MCL patient cells (S053)
How it was run: as §1

[17] = test system: primary AML patient cells (S091)
How it was run: as §1

[18] = test system: primary AML patient cells (S089)
How it was run: as §1

[19] = test system: primary AML patient cells (S009)
How it was run: as §1

[20] = test system: primary AML patient cells (S056)
How it was run: as §1

## Nc1ncn([C@H]2C[C@H](O)[C@@H](CO)O2)c(=O)n1 [Decitabine (Dacogen)]
[1]; 0.024 µM
  viability: 1.06
[1]; 0.12 µM
  viability: 0.969
[1]; 0.6 µM
  viability: 1.06
[1]; 3 µM
  viability: 0.961
[1]; 15 µM
  viability: 0.984
[2]; 0.024 µM
  viability: 1.12
[2]; 0.12 µM
  viability: 0.952
[2]; 0.6 µM
  viability: 1.01
[2]; 3 µM
  viability: 0.937
[2]; 15 µM
  viability: 0.962
[3]; 0.024 µM
  viability: 1.01
[3]; 0.12 µM
  viability: 0.925
[3]; 0.6 µM
  viability: 0.981
[3]; 3 µM
  viability: 0.91
[3]; 15 µM
  viability: 0.955
[4]; 0.024 µM
  viability: 0.971
[4]; 0.12 µM
  viability: 0.877
[4]; 0.6 µM
  viability: 1
[4]; 3 µM
  viability: 0.747
[4]; 15 µM
  viability: 0.716
[5]; 0.024 µM
  viability: 1.02
[5]; 0.12 µM
  viability: 0.93
[5]; 0.6 µM
  viability: 0.964
[5]; 3 µM
  viability: 0.83
[5]; 15 µM
  viability: 0.811
[6]; 0.024 µM
  viability: 0.969
[6]; 0.12 µM
  viability: 0.89
[6]; 0.6 µM
  viability: 0.981
[6]; 3 µM
  viability: 0.864
[6]; 15 µM
  viability: 0.966
[7]; 0.024 µM
  viability: 1.03
[7]; 0.12 µM
  viability: 0.985
[7]; 0.6 µM
  viability: 1.03
[7]; 3 µM
  viability: 0.974
[7]; 15 µM
  viability: 0.977
[8]; 0.024 µM
  viability: 0.948
[8]; 0.12 µM
  viability: 0.974
[8]; 0.6 µM
  viability: 0.926
[8]; 3 µM
  viability: 0.938
[8]; 15 µM
  viability: 0.775
[9]; 0.024 µM
  viability: 1.02
[9]; 0.12 µM
  viability: 0.953
[9]; 0.6 µM
  viability: 0.989
[9]; 3 µM
  viability: 0.889
[9]; 15 µM
  viability: 0.814
[10]; 0.024 µM
  viability: 1
[10]; 0.12 µM
  viability: 0.92
[10]; 0.6 µM
  viability: 0.943
[10]; 3 µM
  viability: 0.945
[10]; 15 µM
  viability: 0.929
[11]; 0.024 µM
  viability: 1.02
[11]; 0.12 µM
  viability: 0.916
[11]; 0.6 µM
  viability: 1.04
[11]; 3 µM
  viability: 0.869
[11]; 15 µM
  viability: 0.965
[12]; 0.024 µM
  viability: 1.05
[12]; 0.12 µM
  viability: 0.939
[12]; 0.6 µM
  viability: 1.03
[12]; 3 µM
  viability: 0.972
[12]; 15 µM
  viability: 1.02
[13]; 0.024 µM
  viability: 0.968
[13]; 0.12 µM
  viability: 1.02
[13]; 0.6 µM
  viability: 0.953
[13]; 3 µM
  viability: 1.08
[13]; 15 µM
  viability: 1.01
[14]; 0.024 µM
  viability: 0.967
[14]; 0.12 µM
  viability: 0.89
[14]; 0.6 µM
  viability: 0.938
[14]; 3 µM
  viability: 0.843
[14]; 15 µM
  viability: 0.82
[15]; 0.024 µM
  viability: 0.993
[15]; 0.12 µM
  viability: 0.936
[15]; 0.6 µM
  viability: 0.973
[15]; 3 µM
  viability: 0.908
[15]; 15 µM
  viability: 0.967
[16]; 0.024 µM
  viability: 0.969
[16]; 0.12 µM
  viability: 0.824
[16]; 0.6 µM
  viability: 0.878
[16]; 3 µM
  viability: 0.807
[16]; 15 µM
  viability: 0.735
[17]; 0.024 µM
  viability: 0.958
[17]; 0.12 µM
  viability: 1.09
[17]; 0.6 µM
  viability: 0.83
[17]; 3 µM
  viability: 0.913
[17]; 15 µM
  viability: 0.617
[18]; 0.024 µM
  viability: 0.729
[18]; 0.12 µM
  viability: 1.06
[18]; 0.6 µM
  viability: 0.632
[18]; 3 µM
  viability: 1.22
[18]; 15 µM
  viability: 0.642
[19]; 0.024 µM
  viability: 0.915
[19]; 0.12 µM
  viability: 0.951
[19]; 0.6 µM
  viability: 0.854
[19]; 3 µM
  viability: 0.859
[19]; 15 µM
  viability: 0.702
[20]; 0.024 µM
  viability: 0.971
[20]; 0.12 µM
  viability: 0.876
[20]; 0.6 µM
  viability: 0.912
[20]; 3 µM
  viability: 0.8
[20]; 15 µM
  viability: 0.766

## COc1cccc2c1C(=O)c1c(O)c3c(c(O)c1C2=O)C[C@@](O)(C(=O)CO)C[C@@H]3O[C@H]1C[C@H](N)[C@H](O)[C@H](C)O1 [Doxorubicin]
[1]; 0.0016 µM
  viability: 0.994
[1]; 0.008 µM
  viability: 1
[1]; 0.04 µM
  viability: 0.942
[1]; 0.2 µM
  viability: 0.488
[1]; 1 µM
  viability: 0.0259
[2]; 0.0016 µM
  viability: 1.12
[2]; 0.008 µM
  viability: 1.17
[2]; 0.04 µM
  viability: 0.892
[2]; 0.2 µM
  viability: 0.281
[2]; 1 µM
  viability: 0.183
[3]; 0.0016 µM
  viability: 1.06
[3]; 0.008 µM
  viability: 1.05
[3]; 0.04 µM
  viability: 0.979
[3]; 0.2 µM
  viability: 0.737
[3]; 1 µM
  viability: 0.447
[4]; 0.0016 µM
  viability: 1.02
[4]; 0.008 µM
  viability: 1.05
[4]; 0.04 µM
  viability: 0.788
[4]; 0.2 µM
  viability: 0.32
[4]; 1 µM
  viability: 0.0625
[5]; 0.0016 µM
  viability: 1.05
[5]; 0.008 µM
  viability: 1.01
[5]; 0.04 µM
  viability: 0.947
[5]; 0.2 µM
  viability: 0.704
[5]; 1 µM
  viability: 0.162
[6]; 0.0016 µM
  viability: 1.04
[6]; 0.008 µM
  viability: 1.03
[6]; 0.04 µM
  viability: 0.98
[6]; 0.2 µM
  viability: 0.776
[6]; 1 µM
  viability: 0.584
[7]; 0.0016 µM
  viability: 1.01
[7]; 0.008 µM
  viability: 0.98
[7]; 0.04 µM
  viability: 0.997
[7]; 0.2 µM
  viability: 0.735
[7]; 1 µM
  viability: 0.0566
[8]; 0.0016 µM
  viability: 0.995
[8]; 0.008 µM
  viability: 0.978
[8]; 0.04 µM
  viability: 0.761
[8]; 0.2 µM
  viability: 0.307
[8]; 1 µM
  viability: 0.0522
[9]; 0.0016 µM
  viability: 1.05
[9]; 0.008 µM
  viability: 1.1
[9]; 0.04 µM
  viability: 1.03
[9]; 0.2 µM
  viability: 0.769
[9]; 1 µM
  viability: 0.244
[10]; 0.0016 µM
  viability: 1.04
[10]; 0.008 µM
  viability: 1.04
[10]; 0.04 µM
  viability: 0.88
[10]; 0.2 µM
  viability: 0.896
[10]; 1 µM
  viability: 0.0673
[11]; 0.0016 µM
  viability: 1.14
[11]; 0.008 µM
  viability: 1.02
[11]; 0.04 µM
  viability: 0.534
[11]; 0.2 µM
  viability: 0.0601
[11]; 1 µM
  viability: 0.0158
[12]; 0.0016 µM
  viability: 1.02
[12]; 0.008 µM
  viability: 0.99
[12]; 0.04 µM
  viability: 1.02
[12]; 0.2 µM
  viability: 0.947
[12]; 1 µM
  viability: 0.487
[13]; 0.0016 µM
  viability: 1.04
[13]; 0.008 µM
  viability: 1.15
[13]; 0.04 µM
  viability: 0.972
[13]; 0.2 µM
  viability: 0.958
[13]; 1 µM
  viability: 0.607
[14]; 0.0016 µM
  viability: 1.06
[14]; 0.008 µM
  viability: 1.01
[14]; 0.04 µM
  viability: 0.418
[14]; 0.2 µM
  viability: 0.0592
[14]; 1 µM
  viability: 0.0152
[15]; 0.0016 µM
  viability: 1.11
[15]; 0.008 µM
  viability: 1.1
[15]; 0.04 µM
  viability: 0.945
[15]; 0.2 µM
  viability: 0.878
[15]; 1 µM
  viability: 0.0843
[16]; 0.0016 µM
  viability: 0.959
[16]; 0.008 µM
  viability: 0.756
[16]; 0.04 µM
  viability: 0.448
[16]; 0.2 µM
  viability: 0.216
[16]; 1 µM
  viability: 0.299
[17]; 0.0016 µM
  viability: 0.983
[17]; 0.008 µM
  viability: 0.905
[17]; 0.04 µM
  viability: 0.737
[17]; 0.2 µM
  viability: 0.637
[17]; 1 µM
  viability: 0.499
[18]; 0.0016 µM
  viability: 1.01
[18]; 0.008 µM
  viability: 1
[18]; 0.04 µM
  viability: 1.01
[18]; 0.2 µM
  viability: 0.665
[18]; 1 µM
  viability: 0.187
[19]; 0.0016 µM
  viability: 1.07
[19]; 0.008 µM
  viability: 0.994
[19]; 0.04 µM
  viability: 0.934
[19]; 0.2 µM
  viability: 0.644
[19]; 1 µM
  viability: 0.221
[20]; 0.0016 µM
  viability: 1.02
[20]; 0.008 µM
  viability: 0.889
[20]; 0.04 µM
  viability: 0.812
[20]; 0.2 µM
  viability: 0.584
[20]; 1 µM
  viability: 0.0807
